Measured values reported in patent US8952024B2, “Herbicidal pyrimidone derivatives” (E I du Pont de Nemours and Company, priority 2009, dated 2015).

What was measured:
Assay in all cases: Test D pre-/postemergence plant response
Format in all cases: in vivo
Conditions in all cases: Postemergence
[1] = test system: bluegrass (annual bluegrass, Poa annua)
Method in brief: (§1)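 Scores (0 no effect, 100 complete control) reflect visual assessment against untreated plants after 14 to 21 days. Treatments were pre- and postemergence sprays in solvent with surfactant.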

[2] = test system: sandbur (southern sandbur, Cenchrus echinatus)
Method in brief: as §1

[3] = test system: barnyardgrass (Echinochloa crus-galli)
Method in brief: as §1

[4] = test system: dallisgrass (Paspalum dilatatum)
Method in brief: as §1

[5] = test system: Surinam grass (Brachiaria decumbens)
Method in brief: as §1

[6] = test system: large crabgrass (Digitaria sanguinalis)
Method in brief: as §1

[7] = test system: ragweed (common ragweed, Ambrosia elatior)
Method in brief: as §1

[8] = test system: itchgrass (Rottboellia cochinchinensis)
Method in brief: as §1

[9] = test system: signalgrass (broadleaf signalgrass, Brachiaria platyphylla)
Method in brief: as §1

[10] = test system: guineagrass (Panicum maximum)
Method in brief: as §1

[11] = test system: Italian ryegrass (Lolium multiflorum)
Method in brief: as §1

[12] = test system: quackgrass (Elytrigia repens)
Method in brief: as §1

[13] = test system: dayflower (Virginia (VA) dayflower, Commelina virginica)
Method in brief: as §1

[14] = 125 g ai/ha, scale 0 to 100 (0 no effect, 100 complete control)
[15] = 250 g ai/ha, scale 0 to 100 (0 no effect, 100 complete control)
[16] = 62 g ai/ha, scale 0 to 100 (0 no effect, 100 complete control)

## CCCCn1c(-c2ccccc2)ncc(C(=O)C2=C(O)C3CCC(C3)C2=O)c1=O (centres unmarked) [Compound 240]
[1]; 31 g ai/ha, scale 0 to 100
  Plant response rating, Bluegrass: 5
[1]; [14]
  Plant response rating, Bluegrass: 35
[1]; [15]
  Plant response rating, Bluegrass: 35
[1]; [16]
  Plant response rating, Bluegrass: 35
[2]; 31 g ai/ha, scale 0 to 100
  Plant response rating, Sandbur: 70
[2]; [14]
  Plant response rating, Sandbur: 90
[2]; [15]
  Plant response rating, Sandbur: 90
[2]; [16]
  Plant response rating, Sandbur: 70
[3]; 31 g ai/ha, scale 0 to 100
  Plant response rating, Barnyardgrass: 80
[3]; [14]
  Plant response rating, Barnyardgrass: 95
[3]; [15]
  Plant response rating, Barnyardgrass: 95
[3]; [16]
  Plant response rating, Barnyardgrass: 95
[4]; 31 g ai/ha, scale 0 to 100
  Plant response rating, Dallisgrass: 5
[4]; [14]
  Plant response rating, Dallisgrass: 75
[4]; [15]
  Plant response rating, Dallisgrass: 75
[4]; [16]
  Plant response rating, Dallisgrass: 70
[5]; 31 g ai/ha, scale 0 to 100
  Plant response rating, Surinam Grass: 70
[5]; [14]
  Plant response rating, Surinam Grass: 95
[5]; [15]
  Plant response rating, Surinam Grass: 95
[5]; [16]
  Plant response rating, Surinam Grass: 70
[6]; 31 g ai/ha, scale 0 to 100
  Plant response rating, Crabgrass, Large: 40
[6]; [14]
  Plant response rating, Crabgrass, Large: 65
[6]; [15]
  Plant response rating, Crabgrass, Large: 70
[6]; [16]
  Plant response rating, Crabgrass, Large: 65
[7]; 31 g ai/ha, scale 0 to 100
  Plant response rating, Ragweed: 70
[7]; [14]
  Plant response rating, Ragweed: 80
[7]; [15]
  Plant response rating, Ragweed: 90
[7]; [16]
  Plant response rating, Ragweed: 75
[8]; 31 g ai/ha, scale 0 to 100
  Plant response rating, Itchgrass: 75
[8]; [14]
  Plant response rating, Itchgrass: 80
[8]; [15]
  Plant response rating, Itchgrass: 80
[8]; [16]
  Plant response rating, Itchgrass: 75
[9]; 31 g ai/ha, scale 0 to 100
  Plant response rating, Signalgrass: 20
[9]; [14]
  Plant response rating, Signalgrass: 75
[9]; [15]
  Plant response rating, Signalgrass: 85
[9]; [16]
  Plant response rating, Signalgrass: 75
[10]; 31 g ai/ha, scale 0 to 100
  Plant response rating, Guineagrass: 40
[10]; [14]
  Plant response rating, Guineagrass: 80
[10]; [15]
  Plant response rating, Guineagrass: 80
[10]; [16]
  Plant response rating, Guineagrass: 65
[11]; 31 g ai/ha, scale 0 to 100
  Plant response rating, Ryegrass, Italian: 0
[11]; [14]
  Plant response rating, Ryegrass, Italian: 35
[11]; [15]
  Plant response rating, Ryegrass, Italian: 35
[11]; [16]
  Plant response rating, Ryegrass, Italian: 35
[12]; 31 g ai/ha, scale 0 to 100
  Plant response rating, Quackgrass: 25
[12]; [14]
  Plant response rating, Quackgrass: 35
[12]; [15]
  Plant response rating, Quackgrass: 50
[12]; [16]
  Plant response rating, Quackgrass: 30
[13]; 31 g ai/ha, scale 0 to 100
  Plant response rating, Dayflower, VA: 35
[13]; [14]
  Plant response rating, Dayflower, VA: 70
[13]; [15]
  Plant response rating, Dayflower, VA: 75
[13]; [16]
  Plant response rating, Dayflower, VA: 60

## COCCCn1c(-c2cc(F)cc(F)c2)ncc(C(=O)C2=C(O)C3CCC(C3)C2=O)c1=O (centres unmarked) [Compound 244]
[1]; 31 g ai/ha, scale 0 to 100
  Plant response rating, Bluegrass: 0
[1]; [14]
  Plant response rating, Bluegrass: 10
[1]; [15]
  Plant response rating, Bluegrass: 20
[1]; [16]
  Plant response rating, Bluegrass: 10
[2]; 31 g ai/ha, scale 0 to 100
  Plant response rating, Sandbur: 70
[2]; [14]
  Plant response rating, Sandbur: 75
[2]; [15]
  Plant response rating, Sandbur: 75
[2]; [16]
  Plant response rating, Sandbur: 70
[3]; 31 g ai/ha, scale 0 to 100
  Plant response rating, Barnyardgrass: 80
[3]; [14]
  Plant response rating, Barnyardgrass: 85
[3]; [15]
  Plant response rating, Barnyardgrass: 90
[3]; [16]
  Plant response rating, Barnyardgrass: 80
[4]; 31 g ai/ha, scale 0 to 100
  Plant response rating, Dallisgrass: 40
[4]; [14]
  Plant response rating, Dallisgrass: 75
[4]; [15]
  Plant response rating, Dallisgrass: 80
[4]; [16]
  Plant response rating, Dallisgrass: 75
[5]; 31 g ai/ha, scale 0 to 100
  Plant response rating, Surinam Grass: 75
[5]; [14]
  Plant response rating, Surinam Grass: 80
[5]; [15]
  Plant response rating, Surinam Grass: 80
[5]; [16]
  Plant response rating, Surinam Grass: 75
[6]; 31 g ai/ha, scale 0 to 100
  Plant response rating, Crabgrass, Large: 70
[6]; [14]
  Plant response rating, Crabgrass, Large: 75
[6]; [15]
  Plant response rating, Crabgrass, Large: 75
[6]; [16]
  Plant response rating, Crabgrass, Large: 75
[7]; 31 g ai/ha, scale 0 to 100
  Plant response rating, Ragweed: 65
[7]; [14]
  Plant response rating, Ragweed: 80
[7]; [15]
  Plant response rating, Ragweed: 85
[7]; [16]
  Plant response rating, Ragweed: 70
[8]; 31 g ai/ha, scale 0 to 100
  Plant response rating, Itchgrass: 60
[8]; [14]
  Plant response rating, Itchgrass: 75
[8]; [15]
  Plant response rating, Itchgrass: 75
[8]; [16]
  Plant response rating, Itchgrass: 70
[9]; 31 g ai/ha, scale 0 to 100
  Plant response rating, Signalgrass: 20
[9]; [14]
  Plant response rating, Signalgrass: 25
[9]; [15]
  Plant response rating, Signalgrass: 35
[9]; [16]
  Plant response rating, Signalgrass: 20
[10]; 31 g ai/ha, scale 0 to 100
  Plant response rating, Guineagrass: 70
[10]; [14]
  Plant response rating, Guineagrass: 75
[10]; [15]
  Plant response rating, Guineagrass: 75
[10]; [16]
  Plant response rating, Guineagrass: 75
[11]; 31 g ai/ha, scale 0 to 100
  Plant response rating, Ryegrass, Italian: 5
[11]; [14]
  Plant response rating, Ryegrass, Italian: 35
[11]; [15]
  Plant response rating, Ryegrass, Italian: 60
[11]; [16]
  Plant response rating, Ryegrass, Italian: 15
[12]; 31 g ai/ha, scale 0 to 100
  Plant response rating, Quackgrass: 20
[12]; [14]
  Plant response rating, Quackgrass: 50
[12]; [15]
  Plant response rating, Quackgrass: 65
[12]; [16]
  Plant response rating, Quackgrass: 40
[13]; 31 g ai/ha, scale 0 to 100
  Plant response rating, Dayflower, VA: 30
[13]; [14]
  Plant response rating, Dayflower, VA: 65
[13]; [15]
  Plant response rating, Dayflower, VA: 70
[13]; [16]
  Plant response rating, Dayflower, VA: 50
